From publication PMC5516944 (Structure (London, England : 1993), 2017)

Tests used:
[1] = target: T1, hATL1 (Homo sapiens, UniProt Q8WXF7); test: SEC-MALS, nucleotide-induced dimerisation; type: binding; conditions: 1 mM nucleotide; 40 μM protein; pH 7.5; 4 mM MgCl2
T1 sequence (Q8WXF7 1-446): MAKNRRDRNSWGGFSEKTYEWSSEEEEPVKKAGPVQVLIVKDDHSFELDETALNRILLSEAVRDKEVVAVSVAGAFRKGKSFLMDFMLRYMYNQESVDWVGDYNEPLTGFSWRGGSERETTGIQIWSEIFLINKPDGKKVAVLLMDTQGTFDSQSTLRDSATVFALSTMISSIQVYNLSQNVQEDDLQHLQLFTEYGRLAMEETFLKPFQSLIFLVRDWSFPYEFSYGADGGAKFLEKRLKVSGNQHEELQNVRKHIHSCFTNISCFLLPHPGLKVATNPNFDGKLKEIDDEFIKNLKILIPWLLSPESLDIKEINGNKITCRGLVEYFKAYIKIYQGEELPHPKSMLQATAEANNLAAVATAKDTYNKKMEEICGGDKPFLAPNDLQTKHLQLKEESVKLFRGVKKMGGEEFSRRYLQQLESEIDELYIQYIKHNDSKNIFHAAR

[2] = target: T2, hATL3 (Homo sapiens, UniProt Q6DD88); test: SEC-MALS, nucleotide-induced dimerisation; type: binding; conditions: 1 mM nucleotide; 40 μM protein; pH 7.5; 4 mM MgCl2
T2 sequence (Q6DD88 1-442): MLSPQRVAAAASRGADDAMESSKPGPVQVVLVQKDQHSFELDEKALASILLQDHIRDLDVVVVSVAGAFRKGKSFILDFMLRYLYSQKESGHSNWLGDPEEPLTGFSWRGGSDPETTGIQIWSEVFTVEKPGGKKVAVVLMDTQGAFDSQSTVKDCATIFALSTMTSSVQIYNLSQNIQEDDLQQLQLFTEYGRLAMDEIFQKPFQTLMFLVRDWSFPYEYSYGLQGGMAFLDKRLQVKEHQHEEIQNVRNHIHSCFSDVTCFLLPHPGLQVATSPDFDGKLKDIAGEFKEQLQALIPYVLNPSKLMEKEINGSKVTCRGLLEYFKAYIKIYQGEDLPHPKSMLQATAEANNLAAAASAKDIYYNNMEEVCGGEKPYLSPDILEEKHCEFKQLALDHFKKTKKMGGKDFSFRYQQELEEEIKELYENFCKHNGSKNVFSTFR

[3] = target: the molecule itself; test: SEC-MALS

In the case of `Nc1nc2c(ncn2[C@@H]2O[C@H](COP(=O)(O)OP(=O)(O)NP(=O)(O)O)[C@@H](O)[C@H]2O)c(=O)[nH]1` [GppNHp], the “SEC-MALS, nucleotide-induced dimerisation” value [1] is reported as “dimeric ATLs are found when bound to GppNHp and GDP•AlFx” and the “SEC-MALS, nucleotide-induced dimerisation” value [2] is reported as “dimeric ATLs are found when bound to GppNHp and GDP•AlFx”.

B1: human atlastin 1 (hATL1) catalytic core fragment, G and middle domains (1–446) (domain or fragment, UniProt Q8WXF7 1-446, looked up)
chain: MAKNRRDRNSWGGFSEKTYEWSSEEEEPVKKAGPVQVLIVKDDHSFELDETALNRILLSEAVRDKEVVAVSVAGAFRKGKSFLMDFMLRYMYNQESVDWVGDYNEPLTGFSWRGGSERETTGIQIWSEIFLINKPDGKKVAVLLMDTQGTFDSQSTLRDSATVFALSTMISSIQVYNLSQNVQEDDLQHLQLFTEYGRLAMEETFLKPFQSLIFLVRDWSFPYEFSYGADGGAKFLEKRLKVSGNQHEELQNVRKHIHSCFTNISCFLLPHPGLKVATNPNFDGKLKEIDDEFIKNLKILIPWLLSPESLDIKEINGNKITCRGLVEYFKAYIKIYQGEELPHPKSMLQATAEANNLAAVATAKDTYNKKMEEICGGDKPFLAPNDLQTKHLQLKEESVKLFRGVKKMGGEEFSRRYLQQLESEIDELYIQYIKHNDSKNIFHAAR
In the case of B1, the “stoichiometry N” value [3] is reported as 2.

B2: human atlastin 3 (hATL3) catalytic core fragment, G and middle domains (1–442) (domain or fragment, UniProt Q6DD88 1-442, looked up)
chain: MLSPQRVAAAASRGADDAMESSKPGPVQVVLVQKDQHSFELDEKALASILLQDHIRDLDVVVVSVAGAFRKGKSFILDFMLRYLYSQKESGHSNWLGDPEEPLTGFSWRGGSDPETTGIQIWSEVFTVEKPGGKKVAVVLMDTQGAFDSQSTVKDCATIFALSTMTSSVQIYNLSQNIQEDDLQQLQLFTEYGRLAMDEIFQKPFQTLMFLVRDWSFPYEYSYGLQGGMAFLDKRLQVKEHQHEEIQNVRNHIHSCFSDVTCFLLPHPGLQVATSPDFDGKLKDIAGEFKEQLQALIPYVLNPSKLMEKEINGSKVTCRGLLEYFKAYIKIYQGEDLPHPKSMLQATAEANNLAAAASAKDIYYNNMEEVCGGEKPYLSPDILEEKHCEFKQLALDHFKKTKKMGGKDFSFRYQQELEEEIKELYENFCKHNGSKNVFSTFR
B2 was tested, and the “stoichiometry N” value [3] was 2.
